# Where “and” joins values, the source holds several entries; their conditions need not be identical. Equal entries are not always repeated.
# Tested on: SW 1271 complex tumor spheroid viability
# Assay: Anticancer human tumor SW 1271 cell line growth inhibition;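 also: spheroids exposed to agents for seven days before readout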;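 as to viability, T/C: percent of DMSO vehicle control luminescence so 100% = vehicle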
# Details: for viability, T/C: stronger effect = lower value
# Source text: Multicellular complex tumor spheroid response to DNA repair inhibitors in combination with DNA-damaging drugs
# This study explores the anticancer activities of DNA-damaging drugs and inhibitors of DNA damage repair, both as single agents and in combinations. Complex tumor spheroids comprised of malignant cells, endothelial cells and mesenchymal stem cells served as an in vitro model for human solid tumors. This model system incorporates physiologically relevant features and patient-derived or established malignant cell lines with clinically relevant genetic alterations from many tumor types. Twenty-six patient-derived or established malignant cell lines were evaluated representing sarcoma, melanoma, small cell lung cancer (SCLC), non-small cell lung cancer (NSCLC), as well as bladder, ovarian and pancreatic cancers. The concentration ranges selected for each drug and investigational agent were based upon clinically achievable concentrations if the clinical Cmax of the agent was known.
# Compounds. The drugs and compounds olaparib (NSC753686), talazoparib (NSC767125), berzosertib (NSC777718), elimusertib (NSC800525), nedisertib (NSC802822), VX-984 (NSC792969), AZD-1390 (NSC803789), temozolomide (NSC362856), topotecan (NSC609699), trabectedin (NSC813783), staurosporine (NSC755774), and gemcitabine (NSC613327) were obtained from the National Cancer Institute (NCI) Developmental Therapeutics Program Chemical Repository. The FDA-approved anticancer drug set is available from the Developmental Therapeutics Program at https://dtp.cancer.gov/organization/dscb/obtaining/available_plates.htm. […] The stock solutions were prepared in dimethyl sulfoxide (DMSO, Sigma-Aldrich, St. Louis, MO, cat. D2650) at 400-fold the tested concentration and stored at -70 degrees C. Prior to their use, the stock solutions were diluted in fresh medium and the final DMSO concentration in the assay was 0.25% (v/v). All drugs and investigational agents were tested over a range starting from a high concentration at or near the clinical Cmax and decreasing in half-log increments. If the clinical Cmax for an agent had not been determined, the highest concentration tested was 10 microM.
# Cell Lines. The patient-derived cancer cell (PDC) lines: 156681-154-R-J1-PDC, 283228-195-R-J1-PDC, 287954-098-R-J1-PDC, 292921-168-R-J2-PDC, 349418-098-R-PDC, 425362-245-T-J1-PDC, 556581-035-R-J1-PDC, and BL0293-F563-PDC were received from the NCI Patient-Derived Models Repository (PDMR, https://pdmr.cancer.gov). The established cell lines HS-SY-2 (RRID:CVCL_8719), MPNST, and SYO-1 (RRID:CVCL_7146) were obtained from the Sloan Kettering Institute. The alveolar soft parts sarcoma cell line ASPS-1 (RRID:CVCL_S738) was established at the NCI and grown from internal seed stocks. The following established cell lines were purchased from the American Type Culture Collection (ATCC, Manassas, VA): G-401 (ATCC, cat. CRL-1441, RRID:CVCL_0270), SW982 (ATCC, cat. HTB-93, RRID:CVCL_1734), VA-ES-BJ (ATCC, cat. CRL-2138, RRID:CVCL_1785), NCI-H719 (ATCC, cat. CRL-5837, RRID:CVCL_1582), NCI-H196 (ATCC, cat. CRL-5823, RRID:CVCL_1509), NCI-H841 (ATCC, cat. CRL-5845, RRID:CVCL_1595), NCI-H1618 (ATCC, cat. CRL-5879, RRID:CVCL_1480), NCI-H1876 (ATCC, cat. CRL-5902, RRID:CVCL_1503), DMS 114 (ATCC, cat. CRL-2066; RRID:CVCL_1174), NCI-H211 (ATCC, cat. CRL-5824; RRID:CVCL_1529), and SW 1271 (ATCC, cat. CRL-2177, RRID:CVCL_1716). The small cell lung cancer cell line COR-L88 was purchased from Sigma-Aldrich (cat. 92031917-1VL, RRID:CVCL_1141). The non-small cell lung cancer cell lines NCI-H226 (RRID:CVCL_1544) and NCI-H322M (RRID:CVCL_1557) were established at the NCI and grown from internal seed stocks. Pooled donor human umbilical vein endothelial cells (HUVEC, Lonza, cat. CC-2519) and human mesenchymal stem cells (hMSC, Lonza, cat. PT-2501) were purchased from Lonza (Walkersville, MD).
# Cell Culture. All cells were maintained in an incubator at 37 degrees C and 5% CO2 with 95% humidity. […]
structure (smiles),measurement,setting,value
CC1COCCN1c1cc(-c2ccnn2C)c2ccnc(-c3ccn[nH]3)c2n1 (stereo unspecified),"viability, T/C",compound 0.0316 µM,76.6% and 87.1% and 78.6%
same,"viability, T/C",compound 0.1 µM,50.5% and 44.6% and 58.8%
same,"viability, T/C",compound 0.316 µM,25.2% and 31.1% and 21.6%
same,"viability, T/C",compound 1 µM,4.08% and 5.26% and 4.1%
same,"viability, T/C",compound 3.16 µM,2.44% and 3.8% and 2.04%
same,"viability, T/C",compound 10 µM,2.18% and 3.01% and 1.85%
same,IC50,curve of compound,107 nM and 93.4 nM and 131 nM
Cc1cc(C)c(CNC(=O)c2cc(-c3ccc(CN4CCOCC4)cc3)cc3c2cnn3C2CCCC2)c(=O)[nH]1,"viability, T/C",compound 0.0316 µM,99.2% and 98.8% and 97.6%
same,"viability, T/C",compound 0.1 µM,95.9% and 99.6% and 92.9%
same,"viability, T/C",compound 0.316 µM,96.5% and 95.6% and 98.5%
same,"viability, T/C",compound 1 µM,94.5% and 91.5% and 91.4%
same,"viability, T/C",compound 3.16 µM,98.9% and 85.2% and 85.7%
same,"viability, T/C",compound 10 µM,85.4% and 73% and 66.3%
same,IC50,curve of compound,> 10000 nM
O=C(c1cc(Cc2n[nH]c(=O)c3ccccc23)ccc1F)N1CCN(C(=O)C2CC2)CC1,"viability, T/C",compound 0.0949 µM,91.1% and 93% and 93.6%
same,"viability, T/C",compound 0.3 µM,77.1% and 81.2% and 80.7%
same,"viability, T/C",compound 0.949 µM,77% and 74.6% and 75.7%
same,"viability, T/C",compound 3 µM,41% and 45.6% and 42.4%
same,"viability, T/C",compound 9.49 µM,29.3% and 28.4% and 28.2%
same,"viability, T/C",compound 30 µM,24.2% (2×) and 16.6%
same,IC50,curve of compound,2270 nM and 2550 nM and 2470 nM
COc1cc(C)[nH]c(=O)c1CN1CCc2c(Cl)cc(C(OC)C3COC3)c(Cl)c2C1=O (stereo unspecified) + CC[C@@]1(O)C(=O)OCc2c1cc1n(c2=O)Cc2cc3c(CN(C)C)c(O)ccc3nc2-1,IC50,"curve of first compound, second compound 0.003 µM",> 10000 nM
same,IC50,"curve of first compound, second compound 0.00949 µM",> 10000 nM
same,IC50,"curve of first compound, second compound 0.03 µM",< 31.6 nM
same,IC50,"curve of first compound, second compound 0.0949 µM",< 31.6 nM
same,IC50,"curve of first compound, second compound 0.3 µM",< 31.6 nM
same,"viability, T/C","second compound 0.003 µM, first compound 0.0316 µM",90.4%
same,"viability, T/C","second compound 0.003 µM, first compound 0.1 µM",94.9%
same,"viability, T/C","second compound 0.003 µM, first compound 0.316 µM",93.3%
same,"viability, T/C","second compound 0.003 µM, first compound 1 µM",93.3%
same,"viability, T/C","second compound 0.003 µM, first compound 3.16 µM",85.3%
same,"viability, T/C","second compound 0.003 µM, first compound 10 µM",75.2%
same,"viability, T/C","second compound 0.00949 µM, first compound 0.0316 µM",73.6%
same,"viability, T/C","second compound 0.00949 µM, first compound 0.1 µM",70.4%
same,"viability, T/C","second compound 0.00949 µM, first compound 0.316 µM",69.6%
same,"viability, T/C","second compound 0.00949 µM, first compound 1 µM",57.3%
same,"viability, T/C","second compound 0.00949 µM, first compound 3.16 µM",64.9%
same,"viability, T/C","second compound 0.00949 µM, first compound 10 µM",56.5%
same,"viability, T/C","second compound 0.03 µM, first compound 0.0316 µM",29.6%
same,"viability, T/C","second compound 0.03 µM, first compound 0.1 µM",28.5%
same,"viability, T/C","second compound 0.03 µM, first compound 0.316 µM",34.3%
same,"viability, T/C","second compound 0.03 µM, first compound 1 µM",31.1%
same,"viability, T/C","second compound 0.03 µM, first compound 3.16 µM",32.4%
same,"viability, T/C","second compound 0.03 µM, first compound 10 µM",31%
same,"viability, T/C","second compound 0.0949 µM, first compound 0.0316 µM",28.8%
same,"viability, T/C","second compound 0.0949 µM, first compound 0.1 µM",30.5%
same,"viability, T/C","second compound 0.0949 µM, first compound 0.316 µM",29.5%
same,"viability, T/C","second compound 0.0949 µM, first compound 1 µM",32.5%
same,"viability, T/C","second compound 0.0949 µM, first compound 3.16 µM",33.1%
same,"viability, T/C","second compound 0.0949 µM, first compound 10 µM",23.5%
same,"viability, T/C","second compound 0.3 µM, first compound 0.0316 µM",14.2%
same,"viability, T/C","second compound 0.3 µM, first compound 0.1 µM",16.1%
same,"viability, T/C","second compound 0.3 µM, first compound 0.316 µM",18.8%
same,"viability, T/C","second compound 0.3 µM, first compound 1 µM",16.7%
same,"viability, T/C","second compound 0.3 µM, first compound 3.16 µM",13.7%
same,"viability, T/C","second compound 0.3 µM, first compound 10 µM",10.9%

# Source: PubChem BioAssay AID1845215 (Molecular Pharmacology Branch, DTP, NCI, 2023)
